Source: PubChem BioAssay AID192 (DTP/NCI, 2004)
Values joined by “and” are separate entries in the source; they are usually repeats but may differ in a detail not shown here. Equal entries are not always repeated. Inconclusive results and toxic doses are left out. Numbered stars: 1 amine (or outer) side, 2 acyl side, 3 side chain; on linkers, the order of the positions; unused ones are H or OH. Square brackets hold non-standard residues; d marks the D form. Peptide text beside a SMILES is read from it. * marks the point of attachment. X6 = CCC(=O)CC1CC(C)CC(C(=O)[*:2])N1[*:1]; X5 = CCCCCCCCC(C)C(=O)*; Aib = CC(C)(N)C(=O)O; X7 = CC(CN(C)CCO)N*

Tested on: BDF1 mice, B16 melanoma ip, median survival T/C
Assay: NCI In Vivo Anticancer Drug Screen. Data for tumor model B16 Melanoma (intraperitoneal) in B6D2F1 (BDF1) mice
Settings: endpoint: median survival time, higher = longer survival
Method in brief: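 Survival or tumor size is measured after treatment of tumor-bearing mice and normalised to the vehicle-treated control group.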

[1] = dose: 0.78 mg/kg/injection, schedule: Q01DX009 (ip), vehicle: saline
[2] = dose: 1.56 mg/kg/injection, schedule: Q01DX009 (ip), vehicle: saline
[3] = dose: 6.25 mg/kg/injection, schedule: Q01DX009 (ip), vehicle: saline with Tween-80
[4] = dose: 25.0 mg/kg/injection, schedule: Q01DX009 (ip), vehicle: saline
[5] = dose: 3.0 mg/kg/injection, schedule: Q01DX009 (ip), vehicle: Klucel (hydroxypropylcellulose) (HPC)
[6] = dose: 6.0 mg/kg/injection, schedule: Q01DX009 (ip), vehicle: Klucel (hydroxypropylcellulose) (HPC)
[7] = dose: 12.0 mg/kg/injection, schedule: Q01DX009 (ip), vehicle: Klucel (hydroxypropylcellulose) (HPC)
[8] = dose: 50.0 mg/kg/injection, schedule: Q01DX009 (ip), vehicle: Klucel (hydroxypropylcellulose) (HPC)
[9] = dose: 100.0 mg/kg/injection, schedule: Q01DX009 (ip), vehicle: Klucel (hydroxypropylcellulose) (HPC)
[10] = dose: 200.0 mg/kg/injection, schedule: Q01DX009 (ip), vehicle: Klucel (hydroxypropylcellulose) (HPC)
[11] = dose: 100.0 mg/kg/injection, schedule: Q04DX003 (ip), vehicle: Klucel (hydroxypropylcellulose) (HPC)
[12] = dose: 200.0 mg/kg/injection, schedule: Q04DX003 (ip), vehicle: Klucel (hydroxypropylcellulose) (HPC)
[13] = dose: 12.5 mg/kg/injection, schedule: Q01DX009 (ip), vehicle: saline
[14] = dose: 50.0 mg/kg/injection, schedule: Q01DX009 (ip), vehicle: saline
[15] = dose: 6.25 mg/kg/injection, schedule: Q01DX009 (ip), vehicle: saline
[16] = dose: 50.0 mg/kg/injection, schedule: Q01DX009 (ip), vehicle: saline with Tween-80
[17] = dose: 100.0 mg/kg/injection, schedule: Q01DX009 (ip), vehicle: saline with Tween-80
[18] = dose: 200.0 mg/kg/injection, schedule: Q01DX009 (ip), vehicle: saline with Tween-80

SMILES: C=CCOCCN1CCN(CCCN2c3ccccc3Sc3ccc(C(F)(F)F)cc32)CC1
- T/C (dose: 0.31 mg/kg/injection, schedule: Q01DX009 (ip), vehicle: saline): 102 % of control
- T/C (dose: 0.62 mg/kg/injection, schedule: Q01DX009 (ip), vehicle: saline): 95 % of control
- T/C [1]: 102 % of control
- T/C [2]: 114 % of control

SMILES: CNC(=S)C(=S)NC
- T/C [3]: 102 % of control
- T/C (dose: 12.5 mg/kg/injection, schedule: Q01DX009 (ip), vehicle: saline with Tween-80): 120 % of control
- T/C (dose: 25.0 mg/kg/injection, schedule: Q01DX009 (ip), vehicle: saline with Tween-80): 107 % of control

SMILES: CCc1ncnc2cc(OCC3CO3)c(OC)cc12 (centres undefined)
- T/C [3]: 109 % of control
- T/C (dose: 20.0 mg/kg/injection, schedule: Q04DX003 (ip), vehicle: other): 114 % of control
- T/C [4]: 154 % of control

SMILES: CC(=O)OC1C2CCC3C(C)(O)C4CC(O)C(C)(C)C4(O)C(O)CC13CC2(C)O (centres undefined)
- T/C (dose: 2.0 micrograms/kg/injection, schedule: Q01DX009 (ip), vehicle: Klucel (hydroxypropylcellulose) (HPC)): 101 % of control
- T/C (dose: 4.0 micrograms/kg/injection, schedule: Q01DX009 (ip), vehicle: Klucel (hydroxypropylcellulose) (HPC)): 92 % of control
- T/C (dose: 8.0 micrograms/kg/injection, schedule: Q01DX009 (ip), vehicle: Klucel (hydroxypropylcellulose) (HPC)): 99 % of control
- T/C (dose: 16.0 micrograms/kg/injection, schedule: Q01DX009 (ip), vehicle: Klucel (hydroxypropylcellulose) (HPC)): 98 % of control

SMILES: C=C1C(=O)O[C@H]2/C=C(/C)C3=CC(=O)[C@@](C)(C[C@@H](OC(=O)/C(C)=C\C)C12)O3 (some centres undefined)
- T/C (dose: 0.75 mg/kg/injection, schedule: Q01DX009 (ip), vehicle: Klucel (hydroxypropylcellulose) (HPC)): 98 % of control
- T/C (dose: 1.5 mg/kg/injection, schedule: Q01DX009 (ip), vehicle: Klucel (hydroxypropylcellulose) (HPC)): 93 % of control
- T/C [5]: 88 % of control
- T/C [6]: 91 % of control
- T/C [7]: 90 % of control

SMILES: CCC(=O)[O][Bi]([c]1ccccc1)[c]1ccccc1
- T/C [5]: 90 % of control
- T/C [6]: 99 % of control
- T/C [7]: 94 % of control
- T/C (dose: 24.0 mg/kg/injection, schedule: Q01DX009 (ip), vehicle: Klucel (hydroxypropylcellulose) (HPC)): 91 % of control

SMILES: Cc1ccc(S(=O)(=O)NC(=O)C2C(=O)CC3(CCCCC3)CC2=O)cc1
- T/C (dose: 25.0 mg/kg/injection, schedule: Q01DX009 (ip), vehicle: Klucel (hydroxypropylcellulose) (HPC)): 97 % of control
- T/C [8]: 100 % of control and 111 % of control
- T/C [9]: 96 % of control and 113 % of control
- T/C [10]: 94 % of control

SMILES: CCOC(=O)C(Cc1ccccc1)NP(=O)(OCCCl)OCCCl (centres undefined)
- T/C [11]: 104 % of control
- T/C [12]: 86 % of control

SMILES: C[N+](C)(C)CCCC1C2CCC(C2)C1C[N+](C)(C)C (centres undefined)
- T/C [13]: 110 % of control
- T/C [4]: 110 % of control

SMILES: CNC(=O)Nc1ccc(C)c(Cl)c1
- T/C [9]: 105 % of control
- T/C [10]: 91 % of control

SMILES: OC12CCC[N+]1(Cc1ccccc1)CCC2 (centres undefined)
- T/C [13]: 109 % of control
- T/C [4]: 109 % of control
- T/C [14]: 102 % of control

SMILES: CCC[CH2][Sn](=[S])[CH2]CCC
- T/C [1]: 98 % of control
- T/C [2]: 102 % of control
- T/C (dose: 6.25 mg/kg/injection, schedule: Q01DX009 (ip), vehicle: other): 97 % of control
- T/C [3]: 109 % of control
- T/C [15]: 107 % of control
- T/C (dose: 6.25 mg/kg/injection, schedule: Q04DX003 (ip), vehicle: other): 105 % of control

SMILES: CN1C2CCC1CC(OC1c3ccccc3CCc3ccccc31)C2 (centres undefined)
- T/C (dose: 3.12 mg/kg/injection, schedule: Q01DX009 (ip), vehicle: saline): 90 % of control
- T/C [15]: 97 % of control
- T/C [13]: 97 % of control

SMILES: CC12CCC(O)CC1CCC1C2CCC2(C)C(c3ccc(=O)oc3)CC3OC312 (centres undefined)
- T/C (dose: 0.31 mg/kg/injection, schedule: Q01DX009 (ip), vehicle: saline with Tween-80): 102 % of control
- T/C (dose: 0.62 mg/kg/injection, schedule: Q01DX009 (ip), vehicle: saline with Tween-80): 94 % of control
- T/C (dose: 1.25 mg/kg/injection, schedule: Q01DX009 (ip), vehicle: saline with Tween-80): 95 % of control
- T/C (dose: 2.5 mg/kg/injection, schedule: Q01DX009 (ip), vehicle: saline with Tween-80): 98 % of control
- T/C (dose: 5.0 mg/kg/injection, schedule: Q01DX009 (ip), vehicle: saline with Tween-80): 100 % of control
- T/C (dose: 10.0 mg/kg/injection, schedule: Q01DX009 (ip), vehicle: saline with Tween-80): 95 % of control

SMILES: CCCC1OC(=O)C(C)O1 (centres undefined)
- T/C [8]: 92 % of control
- T/C [9]: 89 % of control

SMILES: CC(C)(C)NC(=O)CCC(CC(=O)NC(C)(C)C)S(=O)(=O)O (centres undefined)
- T/C [14]: 118 % of control
- T/C (dose: 100.0 mg/kg/injection, schedule: Q01DX009 (ip), vehicle: saline): 112 % of control
- T/C (dose: 200.0 mg/kg/injection, schedule: Q01DX009 (ip), vehicle: saline): 93 % of control

SMILES: CCC(c1ccc(OC)cc1)C(CC)c1ccc(O)c(CN2CCN(C)CC2)c1 (centres undefined)
- T/C [4]: 93 % of control
- T/C [14]: 97 % of control

SMILES: O=C1O/C(=C\c2ccccc2)c2c(Br)c(Br)c(Br)c(Br)c21
- T/C [16]: 112 % of control
- T/C [17]: 107 % of control
- T/C [18]: 112 % of control
- T/C (dose: 400.0 mg/kg/injection, schedule: Q01DX009 (ip), vehicle: saline with Tween-80): 112 % of control

SMILES: CCCCCCCCC(C)C(=O)N1CCCC1C(=O)N1C(CC(=O)CC)CC(C)CC1C(=O)NC(C)C(=O)NC(C)(C)C(=O)NC(C)(C)C(=O)NC(C(=O)NC(C)C(=O)NC(C)(C)C(=O)NC(C)(C)C(=O)NC(C)CN(C)CCO)C(C)CC (centres undefined) (X5-P[X6]A[Aib][Aib]IA[Aib][Aib]-X7; configuration not given here)
- T/C (dose: 0.63 mg/kg/injection, schedule: Q01DX009 (ip), vehicle: Klucel (hydroxypropylcellulose) (HPC)): 102 % of control
- T/C (dose: 1.25 mg/kg/injection, schedule: Q01DX009 (ip), vehicle: Klucel (hydroxypropylcellulose) (HPC)): 90 % of control
- T/C (dose: 2.5 mg/kg/injection, schedule: Q01DX009 (ip), vehicle: Klucel (hydroxypropylcellulose) (HPC)): 95 % of control

SMILES: CCc1nc(N)nc(N)c1-c1ccc(Cl)c(Cl)c1
- T/C (dose: 4.0 mg/kg/injection, schedule: Q01DX009 (ip), vehicle: Klucel (hydroxypropylcellulose) (HPC)): 95 % of control
- T/C (dose: 8.0 mg/kg/injection, schedule: Q01DX009 (sc), vehicle: Klucel (hydroxypropylcellulose) (HPC)): 123 % of control
- T/C (dose: 64.0 mg/kg/injection, schedule: Q01DX001 (ip), vehicle: Klucel (hydroxypropylcellulose) (HPC)): 102 % of control

SMILES: O=C(O)C(CSC(c1ccccc1)c1ccccc1)NC(=O)C(c1ccccc1)c1ccccc1 (centres undefined)
- T/C [11]: 102 % of control
- T/C [12]: 105 % of control
- T/C (dose: 400.0 mg/kg/injection, schedule: Q04DX003 (ip), vehicle: Klucel (hydroxypropylcellulose) (HPC)): 92 % of control

SMILES: CCC[CH2][Sn]([CH2]CCC)([CH2]CCC)[O]C(=O)CC[S][Sn]([CH2]CCC)([CH2]CCC)[CH2]CCC
- T/C (dose: 1.0 mg/kg/injection, schedule: Q01DX009 (ip), vehicle: saline with Tween-80): 92 % of control
- T/C (dose: 2.0 mg/kg/injection, schedule: Q01DX009 (ip), vehicle: saline with Tween-80): 95 % of control

SMILES: O=C(Nc1ccc(F)cc1)Nc1ccc(Cl)cc1
- T/C [17]: 89 % of control
- T/C [18]: 89 % of control

SMILES: CC(=O)CC(=O)Nc1cc(C)c(NC(=O)CC(C)=O)cc1C
- T/C [9]: 93 % of control
- T/C [10]: 93 % of control

SMILES: CC(NC(=O)OC(C)(C)C)C(=O)ON1C(=O)CCC1=O (centres undefined)
- T/C [16]: 102 % of control
- T/C [17]: 92 % of control
